As a reminder, the MIC is the smallest concentration in the dilution series that meets the test's criterion for growth inhibition.

In brackets after ≈: the same amount, converted by molar mass. Like-named read-outs stand apart in the source and are kept apart here.

From publication PMC11009625, “Antibiotic class with potent in vivo activity targeting lipopolysaccharide synthesis in Gram-negative bacteria” (Proceedings of the National Academy of Sciences of the …, 2024) come the findings set out here.

Holding throughout (assay type): cell-based
Assay [1] has as its system clinical MDR E. coli isolates. Nature of the assay: MIC, clinical multi-drug resistant E. coli isolates. The following applies: for MIC: Escherichia coli. The method, then: (§1) Minimum inhibitory concentration (MIC) values were determined according to the Clinical Laboratory Standards Institute guidelines. Frequency of resistance was determined by plating ~5 × 10^8 bacterial cells on agar-solidified media plates containing test compound at concentrations corresponding to four times the measured solid-media MIC of the strains. Colonies were counted after 24 h, restreaked onto media containing the same concentration of compound, and the MIC remeasured against the assayed compound. Genomic DNA from isolated clones was sequenced by paired-end sequencing on an Illumina MiSeq device. Complete experimental details available in SI Appendix. […]
(§2) Minimum inhibitory concentration (MIC) determination. Broth microdilution and agar dilution MIC assays were conducted according to CLSI guidelines (M07-2012). Appropriate inoculation suspension density was assessed using a Sensititre Nephelometer with a Sensititre 0.5 […]
(§3) McFarland Standard. […]
Whole-genome sequencing and data analysis. Genomic DNA of selected clones was prepared using an Epicentre MasterPure Complete DNA Purification Kit. Whole-genome sequencing libraries were prepared using an Illumina Nextera XT Library Preparation Kit. The libraries were sequenced using an Illumina MiSeq device with a V3 600-cycle reagent kit. Whole-genome sequencing data was analyzed using CLC Genomics Workbench Version 11. To determine the genotype of MDR strains from the ENABLE strain collection, de novo assembled contigs were […]

The next assay deals with E. coli ATCC 25922. Nature of the assay: MIC (CLSI broth microdilution), wild-type E. coli. The note with it: ATCC 25922 (Table S4); for MIC: Escherichia coli, ATCC25922, read-out: MIC E. coli EN0001. The method, then: as §1
Minimum inhibitory concentration (MIC) determination. Broth microdilution and agar dilution
MIC assays were conducted according to CLSI guidelines (M07-2012). Appropriate inoculation
suspension density was assessed using a Sensititre Nephelometer with a Sensititre 0.5
as §3
On the technique in general: In broth dilution the organism is exposed to a series of concentrations in liquid medium.

The subject of assay [2] is clinical MDR K. pneumoniae isolates. Nature of the assay: MIC, clinical multi-drug resistant K. pneumoniae isolates. The note with it: for MIC: Klebsiella pneumoniae. The method, then:
as §1, §2, §3
To determine the […]
genotype of MDR strains from the ENABLE strain collection, de novo assembled contigs were […]

Where [3] appears, read: read-out: MIC K. pneumoniae EN0140.
[4] abbreviates: read-out: MIC K. pneumoniae EN0142.
The mark [5] stands for this setting: read-out: MIC K. pneumoniae EN0143.
[6] abbreviates: read-out: MIC K. pneumoniae EN0144.
The mark [7] stands for this setting: read-out: MIC K. pneumoniae EN0145.
Where [8] appears, read: read-out: MIC K. pneumoniae EN0233.
[9] abbreviates: read-out: MIC K. pneumoniae EN0245.
The mark [10] stands for this setting: read-out: MIC K. pneumoniae EN0504.

For `CNC(C)C1CCC(N)C(OC2C(N)CC(N)C(OC3OCC(C)(O)C(NC)C3O)C2O)O1` (centres unmarked) [Gentamicin], the MIC in assay [1] (read-out: MIC E. coli EN0134) was 2 µg/mL (≈ 4.19 µM); in assay [1] (read-out: MIC E. coli EN0135) it was over 64 µg/mL; in assay [1] (read-out: MIC E. coli EN0136), over 64 µg/mL; in assay [1] (read-out: MIC E. coli EN0137) it was over 64 µg/mL; in assay [1] (read-out: MIC E. coli EN0138), 8 µg/mL (≈ 16.8 µM); in assay [1] (read-out: MIC E. coli EN0139) it was 2 µg/mL (≈ 4.19 µM). In addition, the MIC in assay [1] (read-out: MIC E. coli EN0303) was 2 µg/mL (≈ 4.19 µM); in assay [1] (read-out: MIC E. coli EN0481), over 64 µg/mL; in the assay with E. coli ATCC 25922, 1 µg/mL (≈ 2.09 µM); in assay [2] (setting [3]) it was over 64 µg/mL; in assay [2] (setting [4]), 64 µg/mL (≈ 134 µM); in assay [2] (setting [5]) it was 0.5 µg/mL (≈ 1.05 µM). Further, the MIC is over 64 µg/mL in assay [2] (setting [6]); 2 µg/mL (≈ 4.19 µM) in assay [2] (setting [7]); over 64 µg/mL in assay [2] (setting [8]); 2 µg/mL (≈ 4.19 µM) in assay [2] (setting [9]); 0.5 µg/mL (≈ 1.05 µM) in assay [2] (setting [10]).

Take `CO/N=C(\C(=O)N[C@@H]1C(=O)N2C(C(=O)O)=C(COC(C)=O)CS[C@H]12)c1csc(N)n1` [Cefotaxime]: the MIC was 8 µg/mL (≈ 17.6 µM) in assay [1] (read-out: MIC E. coli EN0134); 2 µg/mL (≈ 4.39 µM) in assay [1] (read-out: MIC E. coli EN0135); 4 µg/mL (≈ 8.78 µM) in assay [1] (read-out: MIC E. coli EN0136); over 64 µg/mL in assay [1] (read-out: MIC E. coli EN0137); over 64 µg/mL in assay [1] (read-out: MIC E. coli EN0138); over 64 µg/mL in assay [1] (read-out: MIC E. coli EN0139). Also, the MIC in assay [1] (read-out: MIC E. coli EN0303) was over 64 µg/mL; in assay [1] (read-out: MIC E. coli EN0481), over 64 µg/mL; with E. coli ATCC 25922, 0.5 µg/mL (≈ 1.1 µM); in assay [2] (setting [3]) it was over 64 µg/mL; in assay [2] (setting [4]) it was over 64 µg/mL; in assay [2] (setting [5]), 16 µg/mL (≈ 35.1 µM). In addition, the MIC in assay [2] (setting [6]) is over 64 µg/mL; in assay [2] (setting [7]) it was over 64 µg/mL; in assay [2] (setting [8]), over 64 µg/mL; in assay [2] (setting [9]), 64 µg/mL (≈ 141 µM); in assay [2] (setting [10]), over 64 µg/mL.

As to `C[C@@H](O)[C@H]1C(=O)N2C(C(=O)O)=C(S[C@@H]3CN[C@H](C(=O)N(C)C)C3)[C@H](C)[C@H]12` [Meropenem], the MIC in assay [1] (read-out: MIC E. coli EN0134), in assay [1] (read-out: MIC E. coli EN0135), in assay [1] (read-out: MIC E. coli EN0136), in assay [1] (read-out: MIC E. coli EN0137), in assay [1] (read-out: MIC E. coli EN0138) and in assay [1] (read-out: MIC E. coli EN0139) was at most 0.125 µg/mL each time. The MIC in assay [1] (read-out: MIC E. coli EN0303) is at most 0.125 µg/mL; in assay [1] (read-out: MIC E. coli EN0481) it was at most 0.125 µg/mL; in the assay on E. coli ATCC 25922 it was at most 0.125 µg/mL; in assay [2] (setting [3]), 2 µg/mL (≈ 5.22 µM); in assay [2] (setting [4]) it was 0.5 µg/mL (≈ 1.3 µM); in assay [2] (setting [5]), at most 0.125 µg/mL. The MIC in assay [2] (setting [6]) is 64 µg/mL (≈ 167 µM); in assay [2] (setting [7]) it was 8 µg/mL (≈ 20.9 µM); in assay [2] (setting [8]), 2 µg/mL (≈ 5.22 µM); in assay [2] (setting [9]) it was 2 µg/mL (≈ 5.22 µM); in assay [2] (setting [10]), 4 µg/mL (≈ 10.4 µM).

With Colistin, the “MIC E. coli EN0135” value in assay [1] (MDR (aac(3)-IIa, blaTEM-1B, blaSHV-12 ...)) is 2 mg/L. In addition, in assay [1] (MDR (blaCMY-4, blaTEM-1B ...)), the “MIC E. coli EN0134” value is on record as 2 mg/L. In assay [1] (MDR (blaCTX-M-14b, blaTEM-1C ...)), the “MIC E. coli EN0138” value is recorded as 2 mg/L. In addition, the “MIC E. coli EN0139” value in assay [1] (MDR (blaOXA-1, blaCTX-M-15 ...)) was 2 mg/L. Besides, in assay [1] (MDR (blaOXA-1, blaTEM-1B, blaCTX-M-15 ...)), the “MIC E. coli EN0137” value came to 2 mg/L. For the same molecule, in assay [1] (MDR (blaOXA-2, blaTEM-1B, blaCTX-M-2 ...)), the “MIC E. coli EN0136” value is on record as 1 mg/L. Also, the “MIC E. coli EN0481” value in assay [1] (colistinR (mcr-1), MDR (rmtB ...)) is 8 mg/L. For the same molecule, in assay [1] (colistinR (pmrB T156M), MDR), the “MIC E. coli EN0303” value is 8 mg/L. The “MIC E. coli EN0001” value with E. coli ATCC 25922 was determined as 2 mg/L. In addition, the “MIC K. pneumoniae EN0144” value in assay [2] (MBL (blaVIM-26), MDR) was determined as 2 mg/L. Also, the “MIC K. pneumoniae EN0145” value in assay [2] (MDR (blaCTX-M-15 ...)) came to 2 mg/L. The “MIC K. pneumoniae EN0140” value in assay [2] (MDR (blaDHA-1 ...), OmpK36 loss) amounted to 2 mg/L. The “MIC K. pneumoniae EN0143” value in assay [2] (MDR (blaOXA-2, blaSHV-12 ...)) is on record as 2 mg/L. Moreover, the “MIC K. pneumoniae EN0142” value in assay [2] (carbapenemR (blaKPC-2), MDR) was found to be 2 mg/L. In addition, the “MIC K. pneumoniae EN0233” value in assay [2] (carbapenemR (blaOXA-48), MDR, OmpK36 loss) is on record as 32 mg/L. For the same molecule, in assay [2] (colistinR (mgrB::IS10), MDR), the “MIC K. pneumoniae EN0245” value turned out to be 64 mg/L. The “MIC K. pneumoniae EN0504” value in assay [2] (colistinR, MDR) is recorded as 64 mg/L.
